Laboratory results reported in ChEMBL document CHEMBL1909046, “DrugMatrix in vitro pharmacology data”.

Key:
[1] = target: T1, Progesterone receptor (Bos taurus, UniProt Q690N0); experiment: DRUGMATRIX: Progesterone radioligand binding (ligand: [3H] R-5020); format: tissue-based, Uterus; settings: Not Active = under 50% inhibition at 10 µM; for Ki: read-out: Ki
T1 sequence (Q690N0 whole entry): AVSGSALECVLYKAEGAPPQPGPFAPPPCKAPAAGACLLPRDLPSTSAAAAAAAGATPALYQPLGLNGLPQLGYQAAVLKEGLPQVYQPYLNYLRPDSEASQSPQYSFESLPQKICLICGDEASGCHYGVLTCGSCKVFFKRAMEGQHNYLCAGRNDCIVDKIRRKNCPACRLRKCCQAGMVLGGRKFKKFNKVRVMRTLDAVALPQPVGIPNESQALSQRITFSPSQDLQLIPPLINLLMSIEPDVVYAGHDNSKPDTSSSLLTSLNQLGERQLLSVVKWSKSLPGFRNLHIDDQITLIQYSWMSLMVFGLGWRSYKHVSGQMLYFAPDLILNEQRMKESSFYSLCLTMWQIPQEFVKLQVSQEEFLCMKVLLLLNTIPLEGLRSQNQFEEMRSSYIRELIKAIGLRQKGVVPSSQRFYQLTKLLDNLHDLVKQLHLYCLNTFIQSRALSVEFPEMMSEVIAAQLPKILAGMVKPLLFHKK

[2] = target: T2, Caspase-1 (Homo sapiens, UniProt P29466); parameters: species or system Escherichia coli;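 also: Caspase-1 enzyme inhibition assay with a peptide substrate; in other assays of this panel Not Active means under 50% inhibition at 10 µM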
T2 sequence (P29466 whole entry): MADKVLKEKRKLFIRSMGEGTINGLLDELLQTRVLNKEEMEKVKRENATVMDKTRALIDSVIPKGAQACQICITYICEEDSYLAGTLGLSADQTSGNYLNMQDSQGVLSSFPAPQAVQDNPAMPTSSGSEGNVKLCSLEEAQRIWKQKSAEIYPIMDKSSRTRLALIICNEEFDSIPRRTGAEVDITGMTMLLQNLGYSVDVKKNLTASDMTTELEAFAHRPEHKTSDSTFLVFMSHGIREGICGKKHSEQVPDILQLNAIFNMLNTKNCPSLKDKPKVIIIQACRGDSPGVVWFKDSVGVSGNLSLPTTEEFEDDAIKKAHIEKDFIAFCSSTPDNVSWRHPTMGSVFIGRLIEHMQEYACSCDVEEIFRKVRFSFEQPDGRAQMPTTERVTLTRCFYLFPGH

[3] = target: C-C chemokine receptor type 2 (Homo sapiens, UniProt P41597); format: cell membranes, CHO-K1, Membrane; settings: cho-k1; also: in other assays of this panel Not Active means under 50% inhibition at 10 µM
[4] = target: T3, Neuropeptide Y receptor type 1 (Homo sapiens, UniProt P25929); format: cell membranes, Membrane; settings: sk-n-mc; also: in other assays of this panel Not Active means under 50% inhibition at 10 µM
T3 sequence (P25929 whole entry): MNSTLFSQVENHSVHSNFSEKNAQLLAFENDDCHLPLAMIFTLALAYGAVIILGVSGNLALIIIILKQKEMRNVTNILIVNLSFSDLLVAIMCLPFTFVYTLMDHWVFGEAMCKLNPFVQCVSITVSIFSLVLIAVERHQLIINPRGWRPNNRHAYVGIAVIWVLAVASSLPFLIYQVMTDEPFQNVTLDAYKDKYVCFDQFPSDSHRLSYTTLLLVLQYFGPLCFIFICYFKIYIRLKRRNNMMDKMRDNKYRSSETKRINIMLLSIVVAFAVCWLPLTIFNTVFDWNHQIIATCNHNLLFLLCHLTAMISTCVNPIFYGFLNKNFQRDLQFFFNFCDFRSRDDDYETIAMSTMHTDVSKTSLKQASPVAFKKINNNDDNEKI

[5] = target: T4, 5-hydroxytryptamine receptor 2C (Homo sapiens, UniProt P28335); experiment: DRUGMATRIX: Serotonin (5-Hydroxytryptamine) 5-HT2C radioligand binding (ligand: [3H] Mesulergine); format: cell membranes, CHO-K1, Membrane; settings: cho-k1; Not Active = under 50% inhibition at 10 µM
T4 sequence (P28335 whole entry): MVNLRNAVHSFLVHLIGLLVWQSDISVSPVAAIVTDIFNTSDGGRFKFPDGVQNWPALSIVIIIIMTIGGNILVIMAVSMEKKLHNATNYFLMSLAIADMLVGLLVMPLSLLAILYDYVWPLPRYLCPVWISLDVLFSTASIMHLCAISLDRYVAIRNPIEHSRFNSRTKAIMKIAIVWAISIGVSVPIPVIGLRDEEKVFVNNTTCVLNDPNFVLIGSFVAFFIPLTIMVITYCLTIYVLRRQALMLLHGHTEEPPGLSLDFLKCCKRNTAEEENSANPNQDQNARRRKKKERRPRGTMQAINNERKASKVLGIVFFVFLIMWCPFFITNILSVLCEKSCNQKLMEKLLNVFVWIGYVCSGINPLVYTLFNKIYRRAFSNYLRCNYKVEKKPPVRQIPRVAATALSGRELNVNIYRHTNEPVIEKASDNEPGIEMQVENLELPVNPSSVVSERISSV

[6] = DRUGMATRIX: beta-Lactamase enzyme inhibition (substrate: Nitrocefin); parameters: species or system Bacillus cereus; settings: Not Active = under 50% inhibition at 10 µM
[7] = target: Cannabinoid receptor 1 (Homo sapiens, UniProt P21554); format: cell membranes, Membrane; settings: chem-1; also: in other assays of this panel Not Active means under 50% inhibition at 10 µM
Chain of Cannabinoid receptor 1 (P21554 whole entry): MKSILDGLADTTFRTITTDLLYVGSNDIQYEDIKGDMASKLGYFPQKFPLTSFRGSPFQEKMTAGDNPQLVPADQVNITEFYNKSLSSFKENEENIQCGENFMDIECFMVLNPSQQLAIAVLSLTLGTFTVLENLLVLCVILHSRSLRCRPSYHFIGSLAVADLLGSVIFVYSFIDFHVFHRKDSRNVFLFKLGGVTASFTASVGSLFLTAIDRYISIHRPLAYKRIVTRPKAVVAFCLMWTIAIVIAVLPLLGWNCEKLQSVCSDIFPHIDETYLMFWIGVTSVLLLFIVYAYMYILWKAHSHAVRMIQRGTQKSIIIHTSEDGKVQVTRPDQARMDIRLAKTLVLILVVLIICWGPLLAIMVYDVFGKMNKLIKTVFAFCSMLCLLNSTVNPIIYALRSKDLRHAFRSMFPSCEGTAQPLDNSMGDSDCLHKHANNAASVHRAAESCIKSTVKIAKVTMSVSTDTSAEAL

Chain of C-C chemokine receptor type 2 (P41597 whole entry): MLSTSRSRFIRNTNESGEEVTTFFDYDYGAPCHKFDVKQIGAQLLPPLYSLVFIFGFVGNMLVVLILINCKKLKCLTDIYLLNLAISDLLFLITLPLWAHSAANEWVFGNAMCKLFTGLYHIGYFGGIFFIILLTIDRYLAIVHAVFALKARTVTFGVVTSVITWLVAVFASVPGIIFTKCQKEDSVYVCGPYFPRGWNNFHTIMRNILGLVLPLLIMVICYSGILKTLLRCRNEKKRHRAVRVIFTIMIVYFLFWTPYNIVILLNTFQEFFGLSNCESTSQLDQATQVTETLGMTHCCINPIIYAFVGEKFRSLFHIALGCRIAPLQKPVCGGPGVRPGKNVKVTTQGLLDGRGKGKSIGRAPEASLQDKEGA

| Compound | IC50 [1] | IC50 [2] | IC50 [3] | IC50 [4] | IC50 [5] | IC50 [6] | Ki [6] | IC50 [7] | IC50 ([1]; read-out: IC50) [nM] | Ki [1] [nM] |
| --- | --- | --- | --- | --- | --- | --- | --- | --- | --- | --- |
| COc1ccccc1OCC(O)COC(N)=O (stereo not drawn) [METHOCARBAMOL] | Not Active | Not Active | Not Active | Not Active | Not Active | Not Active | Not Active | Not Active |  |  |
| CO[C@@]1(NC(=O)CSCC#N)C(=O)N2C(C(=O)O)=C(CSc3nnnn3C)CS[C@@H]21 [CEFMETAZOLE] | Not Active | Not Active | Not Active | Not Active | Not Active | Not Active | Not Active | Not Active |  |  |
| C=C(CC)C(=O)c1ccc(OCC(=O)O)c(Cl)c1Cl [ETHACRYNIC ACID] | Not Active | Not Active | Not Active | Not Active | Not Active | Not Active | Not Active | Not Active |  |  |
| Oc1ccccc1O [CATECHOL] | Not Active | Not Active | Not Active | Not Active | Not Active | Not Active | Not Active | Not Active |  |  |
| CC(C)(CO)C(O)C(=O)NCCCO (stereo not drawn) [PANTHENOL] | Not Active | Not Active | Not Active | Not Active | Not Active | Not Active | Not Active | Not Active |  |  |
| NC(=O)N1c2ccccc2C=Cc2ccccc21 [CARBAMAZEPINE] | Not Active | Not Active | Not Active | Not Active | Not Active | Not Active | Not Active | Not Active |  |  |
| CN(Cc1cnc2nc(N)nc(N)c2n1)c1ccc(C(=O)N[C@@H](CCC(=O)O)C(=O)O)cc1 [METHOTREXATE] | Not Active | Not Active | Not Active | Not Active | Not Active | Not Active | Not Active | Not Active |  |  |
| O=P1(N(CCCl)CCCl)NCCCO1 (stereo not drawn) [CYCLOPHOSPHAMIDE ANHYDROUS] | Not Active | Not Active | Not Active | Not Active | Not Active | Not Active | Not Active | Not Active |  |  |
| C[C@]12CCC(=O)C=C1CC[C@@H]1[C@@H]2[C@@H](O)C[C@@]2(C)[C@H]1CC[C@]2(O)C(=O)CO [HYDROCORTISONE] | Not Active | Not Active | Not Active | Not Active | Not Active | Not Active | Not Active | Not Active |  |  |
| Cc1cccc(Nc2ccccc2C(=O)O)c1C [MEFENAMIC ACID] | Not Active | Not Active | Not Active | Not Active | Not Active | Not Active | Not Active | Not Active |  |  |
| CCn1cc(C(=O)O)c(=O)c2cc(F)c(N3CCNCC3)nc21 [ENOXACIN] | Not Active | Not Active | Not Active | Not Active | Not Active | Not Active | Not Active | Not Active |  |  |
| Cc1c(N(C)CS(=O)(=O)[O-])c(=O)n(-c2ccccc2)n1C.[Na+] [DIPYRONE SODIUM] | Not Active | Not Active | Not Active | Not Active | Not Active | Not Active | Not Active | Not Active |  |  |
| C#C[C@]1(O)CC[C@H]2[C@@H]3CCC4=Cc5oncc5C[C@]4(C)[C@H]3CC[C@@]21C [DANAZOL] |  | Not Active | Not Active | Not Active | Not Active | Not Active | Not Active | Not Active | 259 | 34 |
| CC(=O)O[C@]1(C(C)=O)CC[C@H]2[C@@H]3C=C(C)C4=CC(=O)CC[C@]4(C)[C@H]3CC[C@@]21C [MEGESTROL ACETATE] |  | Not Active | Not Active | Not Active | Not Active | Not Active | Not Active | Not Active | 11 | 1.44 |
| CCOC(=O)n1ccn(C)c1=S [CARBIMAZOLE] | Not Active | Not Active | Not Active | Not Active | Not Active | Not Active | Not Active | Not Active |  |  |
| CN1C(=O)CN=C(c2ccccc2)c2cc(Cl)ccc21 [DIAZEPAM] | Not Active | Not Active | Not Active | Not Active | Not Active | Not Active | Not Active | Not Active |  |  |
| NC[C@H]1O[C@H](O[C@H]2[C@H](O)[C@@H](O[C@H]3O[C@H](CO)[C@@H](O)[C@H](N)[C@H]3O)[C@H](N)C[C@@H]2N)[C@H](O)[C@@H](O)[C@@H]1O [KANAMYCIN] | Not Active | Not Active | Not Active | Not Active | Not Active | Not Active | Not Active | Not Active |  |  |
| COc1cc(CNC(=O)CCCC/C=C/C(C)C)ccc1O [CAPSAICIN] | Not Active | Not Active | Not Active | Not Active | Not Active | Not Active | Not Active | Not Active |  |  |
| C[C@H](C(=O)O)c1cccc(C(=O)c2ccccc2)c1 [DEXKETOPROFEN] | Not Active | Not Active | Not Active | Not Active | Not Active | Not Active | Not Active | Not Active |  |  |
| NC[C@@H]1O[C@H](O[C@H]2[C@@H](O)[C@H](O[C@@H]3[C@@H](O)[C@H](N)C[C@H](N)[C@H]3O[C@H]3O[C@H](CN)[C@@H](O)[C@H](O)[C@H]3N)O[C@@H]2CO)[C@H](N)[C@@H](O)[C@@H]1O [FRAMYCETIN] | Not Active | Not Active | Not Active | Not Active | Not Active | Not Active | Not Active | Not Active |  |  |
| CC(C(=O)O)c1ccc(-c2ccccc2)c(F)c1 (stereo not drawn) [FLURBIPROFEN] |  | Not Active | Not Active | Not Active | Not Active | Not Active | Not Active | Not Active |  |  |
| CCOC(=O)[C@H](CCc1ccccc1)N[C@@H](C)C(=O)N1CCC[C@H]1C(=O)O |  | Not Active | Not Active | Not Active | Not Active | Not Active | Not Active | Not Active |  |  |
| Cc1cnc(C(=O)NCCc2ccc(S(=O)(=O)NC(=O)NC3CCCCC3)cc2)cn1 [GLIPIZIDE] | Not Active |  | Not Active | Not Active | Not Active | Not Active | Not Active | Not Active |  |  |
